From patent US20140179681A1, “METHODS AND COMPOSITIONS OF TARGETED DRUG DEVELOPMENT” (priority 2010, published 2014)

Biological target: T1, EGFR (Homo sapiens, UniProt P00533)
T1 construct: host or cells: A431
Assay: EGFR in-cell Western (ICW) screening protocol (EGFR inhibition assay)
Type: cell-based
Details: % Inhibition of EGF dependent EGFR phosphorylation in A431 cells, compound 125 μM in assay
Method in brief: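 In-cell Western read-out: fixed A431 cells were co-stained for total EGFR and phospho-EGFR (Tyr1173; some runs Tyr1045). Before fixation, cells were serum-starved for 2 h, exposed to compound for 4 h, then given EGF for 10 min, usually at 10 ng/ml final (6.6 or 12.5 ng/ml in some runs).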

T1 sequence (P00533 25-1210): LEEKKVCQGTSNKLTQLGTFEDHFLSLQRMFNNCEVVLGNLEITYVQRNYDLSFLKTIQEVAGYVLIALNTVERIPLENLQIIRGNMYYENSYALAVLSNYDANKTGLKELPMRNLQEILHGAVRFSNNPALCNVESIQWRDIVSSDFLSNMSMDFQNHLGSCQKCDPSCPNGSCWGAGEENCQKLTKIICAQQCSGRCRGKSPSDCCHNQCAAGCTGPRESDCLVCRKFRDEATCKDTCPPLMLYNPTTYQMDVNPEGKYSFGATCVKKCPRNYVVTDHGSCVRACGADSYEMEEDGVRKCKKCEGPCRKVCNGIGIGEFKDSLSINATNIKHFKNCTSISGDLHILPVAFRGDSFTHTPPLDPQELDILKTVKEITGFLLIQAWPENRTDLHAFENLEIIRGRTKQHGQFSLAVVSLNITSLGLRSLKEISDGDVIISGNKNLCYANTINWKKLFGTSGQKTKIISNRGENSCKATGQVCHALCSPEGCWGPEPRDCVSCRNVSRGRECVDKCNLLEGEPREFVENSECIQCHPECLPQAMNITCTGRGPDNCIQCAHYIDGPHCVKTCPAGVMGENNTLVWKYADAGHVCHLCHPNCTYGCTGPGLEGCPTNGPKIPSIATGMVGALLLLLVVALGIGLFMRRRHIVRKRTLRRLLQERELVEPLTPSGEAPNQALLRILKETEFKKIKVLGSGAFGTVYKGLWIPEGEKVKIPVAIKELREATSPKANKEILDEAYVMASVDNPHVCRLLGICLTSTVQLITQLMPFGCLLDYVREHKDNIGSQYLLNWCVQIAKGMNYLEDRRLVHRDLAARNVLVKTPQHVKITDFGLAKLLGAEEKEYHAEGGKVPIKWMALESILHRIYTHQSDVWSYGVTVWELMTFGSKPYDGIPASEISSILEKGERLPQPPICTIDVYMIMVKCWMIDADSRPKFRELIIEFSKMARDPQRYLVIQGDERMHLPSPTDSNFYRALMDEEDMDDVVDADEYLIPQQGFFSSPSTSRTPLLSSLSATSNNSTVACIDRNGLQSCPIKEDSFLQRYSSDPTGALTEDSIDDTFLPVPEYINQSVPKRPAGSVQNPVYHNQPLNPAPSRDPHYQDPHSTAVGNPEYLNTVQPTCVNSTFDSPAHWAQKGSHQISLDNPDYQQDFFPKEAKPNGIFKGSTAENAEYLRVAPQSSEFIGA

Row | ICW Screen (Table 11) | ICW assay (Table 10) | Structure (SMILES)
1 | 65.9 |  | CCc1cc2c(CN3CCN(Cc4ccc5c(c4)OCO5)CC3)cc(=O)oc2cc1O [AD4-1734]
2 |  | 112.858 | Cc1cc(C)cc(NS(=O)(=O)c2ccc(NC(=S)Nc3ccccc3)cc2)c1 [AD4-11091]
